Reference: US5002949A, “5-substituted-6-aminopyrimidine derivatives” (American Home Products Corporation, priority 1990, dated 1991)
Structures can show the parent of a compound that is named as a salt.

How the values were obtained:
[1] = test system: platelet aggregation induced by arachidonic acid; assay: inhibition of platelet aggregation induced by arachidonic acid; type: cell-based
Description: (§1) As representative compounds, 5-bromo-6-[[(5-bromo-3-pyridinylmethyl]amino]-2-methyl-4(1H)-pyrimidinone,HBr (Compound A) and 5-cyano-2-methyl-6-[[3-pyridinyl)methyl)]amino]-4(1H)-pyrimidinone hydrochloride (Compound B) inhibited platelet aggregation as follows.

[2] = test system: platelet aggregation induced by U46619 (endoperoxide); assay: inhibition of platelet aggregation induced by U46619 (endoperoxide); type: cell-based
Description: as §1

[3] = test system: platelet aggregation induced by adenosine diphosphate; assay: inhibition of platelet aggregation induced by adenosine diphosphate (ADP); type: cell-based; conditions: ADP (second phase)
Description: as §1

white thrombus formation = assay: inhibition of white thrombus formation in the rabbit arteriovenous model; type: in vivo
[4] = test system: platelet aggregation induced by epinephrine; assay: inhibition of platelet aggregation induced by epinephrine; type: cell-based; conditions: Epinephrine (second phase)
Description: as §1

[5] = test system: platelet aggregation induced by collagen; assay: inhibition of platelet aggregation induced by collagen; type: cell-based
Description: as §1

Row | SMILES | IC50 [1] | IC50 [2] | IC50 [3] | Percent Inhibition (thrombus weight) (white thrombus formation; 0.1 mg/kg i.v.) | Percent Inhibition (thrombus weight) (white thrombus formation; 0.25 mg/kg i.v.) | IC50 [4] | IC50 [5] | Percent Inhibition (thrombus weight) (white thrombus formation; 0.5 mg/kg i.v.) | Percent Inhibition (thrombus weight) (white thrombus formation; 1.0 mg/kg i.v.) | Percent Inhibition (thrombus weight) (white thrombus formation; 5.0 mg/kg i.v.)
1 | Cc1nc(NCc2cncc(Br)c2)c(Br)c(=O)[nH]1 [Compound A] | 0.18 µM | 0.21 µM | 0.2 µM | 28.4% | 47.1% | 0.43 µM | 0.54 µM |  |  | 
2 | Cc1nc(NCc2cccnc2)c(C#N)c(=O)[nH]1 [Compound B, 5-cyano-2-methyl-6-[[3-pyridinyl)methyl)]amino]-4(1H)-pyrimidinone hydrochloride] | 2.8 µM | 6.6 µM | 6.3 µM |  |  | 10.8 µM | 13.3 µM | 41.7% | 56.8% | 76.7%
